From US20100092465A1, “TREATMENT OF GRAFT-VERSUS-HOST DISEASE” (priority 2006, published 2010) come the findings set out here.

Experiment [1] concerns acute graft-vs-host disease. Kind of experiment: Mouse model of acute graft-vs-host disease. Type of experiment: in vivo. As for the experimental part:
Efficacy of IL-27 antagonists was assayed in a mouse model of acute graft-vs-host disease (Durie et al., J. Clin. Invest. 94:1333-1338, 1994). Parental mice (C57BL/6; n=12) were euthanized, and their spleens were collected. The pooled spleens were smashed using two glass slides to dissociate splenic cells. Lysis buffer was added to the splenocyte suspension to remove red blood cells. The cells were washed in RPMI 1640 (10% FBS) medium and resuspended in an appropriate amount of PBS to make a cell concentration of 300 million cells/ml. Protein treatments were administered by intraperitoneal injection every other day beginning on day-1 and continuing until day 15. Dexamethasone (DEX) was administered by injection daily on days 0 through 6. On day 0, 75 million donor splenic lymphocytes from B6 mice (250 .micro.l per injection) were injected intravenously into recipient mice (C57BL/6×DBA/2 F1 (BDF1); n=10 per group) mice. Mice were monitored 3 times a week for changes in body weight and any signs of moribundity. Mice that lost >20% of their initial body weight were euthanized. Otherwise, mice were sacrificed 18 days after the cell transfer. Spleens were collected, and a CTL-specific lysis assay using P815 cells was performed as a quantitative measurement of acute GVHD. Furthermore, spleens were stained for T- and B-cell markers, including MHC class I markers (H2^b and H2^d) to look at donor/recipient cell ratio (acute GVHD spleen cells are mostly donor cells). Sera were collected to measure serum level of IgG1, IgG2a, and IgE by ELISA, and cytokine and chemokine levels using a commercially available kit (Luminex Corporation, Austin, Tex.).

A further experiment deals with T1, huIL-27 (Homo sapiens, UniProt Q14213+Q8NEV9).
T1 sequence (Q14213 21-229): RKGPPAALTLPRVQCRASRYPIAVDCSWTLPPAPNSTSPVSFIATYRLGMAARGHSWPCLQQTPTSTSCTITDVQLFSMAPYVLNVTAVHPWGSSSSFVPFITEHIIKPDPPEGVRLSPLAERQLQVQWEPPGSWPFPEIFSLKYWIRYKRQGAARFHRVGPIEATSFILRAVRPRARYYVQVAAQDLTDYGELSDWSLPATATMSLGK
T1 sequence (Q8NEV9 29-243): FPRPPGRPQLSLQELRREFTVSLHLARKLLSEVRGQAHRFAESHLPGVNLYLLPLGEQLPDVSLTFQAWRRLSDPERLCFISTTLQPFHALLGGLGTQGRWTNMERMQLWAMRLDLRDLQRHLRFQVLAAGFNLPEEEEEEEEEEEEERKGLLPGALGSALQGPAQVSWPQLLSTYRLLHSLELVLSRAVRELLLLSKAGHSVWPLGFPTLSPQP
The experiment can be described thus: Phospho-STAT3 neutralization assay, mouse spleens, huIL-27. Type of experiment: cell-based. The settings on record: Mouse Spleens; ligand huIL-27 at EC90. From the text: (§1) Whole mouse spleens were harvested from C57 B1/6 mice and washed two times with 1×PBS before being plated out at 2×10^5 cells/well in assay media (RPMI 1640 plus 10% fetal bovine serum) in 96-well, round-bottom tissue culture plates. Total human PBMC (peripheral blood mononuclear cells) were thawed from a frozen vial collected from a leukapherisis donation and washed two times with 1×PBS before being plated out at 10^6 cells/well in assay media in 96-well, round-bottom tissue culture plates. […] Following pre-incubation, treatments were added to the plates containing the cells and incubated together at 37° C. for 15 minutes.
(§2) Following incubation, cells were washed with ice-cold wash buffer (BIO-PLEX Cell Lysis Kit, BIO-RAD Laboratories, Hercules, Calif.) and put on ice to stop the reaction according to manufacturer's instructions. […]
(§3) Capture beads (BIO-PLEX Phospho-Stat3 Assay, BIO-RAD Laboratories) were combined with 50 μL of 1:1 diluted lysates and added to a 96-well filter plate according to manufacture's instructions (BIO-PLEX Phosphoprotein Detection Kit, BIO-RAD Laboratories). […] After the final wash, beads were resuspended in 125 μL/well of bead suspension buffer, shaken for 30 seconds, and read on an array reader (BIO-PLEX, BIO-RAD Laboratories) according to the manufacture's instructions. Data were analyzed using analytical softward (BIO-PLEX MANAGER 3.0, BIO-RAD Laboratories). […]

In the next experiment the target is T2, muIL-27 (Mus musculus, UniProt O35228+Q8K3I6).
T2 sequence (O35228 19-228): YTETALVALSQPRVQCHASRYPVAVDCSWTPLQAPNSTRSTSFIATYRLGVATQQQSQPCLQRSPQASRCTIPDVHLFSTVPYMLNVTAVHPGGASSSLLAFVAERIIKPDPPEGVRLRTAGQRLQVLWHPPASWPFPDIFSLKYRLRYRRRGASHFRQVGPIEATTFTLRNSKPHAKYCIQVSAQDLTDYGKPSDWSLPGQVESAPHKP
T2 sequence (Q8K3I6 29-234): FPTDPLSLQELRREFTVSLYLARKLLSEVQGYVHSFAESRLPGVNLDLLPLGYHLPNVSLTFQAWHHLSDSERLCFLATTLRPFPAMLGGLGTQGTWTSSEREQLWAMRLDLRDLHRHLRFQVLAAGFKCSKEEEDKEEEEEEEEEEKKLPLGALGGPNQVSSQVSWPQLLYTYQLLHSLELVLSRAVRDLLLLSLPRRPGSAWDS
Kind of experiment: Phospho-STAT3 neutralization assay, mouse spleens, muIL-27. It counts as cell-based. As to conditions: ligand muIL-27 at EC90.
Text: as §1, §2, §3

In general, IC50 refers to the concentration that inhibits the measured activity by half. With “human IL-27RA-Fc5: human IL27RA extracellular domain (amino acids 1 to 512 of SEQ ID NO:5) fused to Fc5, effector minus human gamma1 Fc; SEQ ID NO:3”, the colon length shortening entry in experiment [1] (mouse, in vivo) is given as “did prevent colon length shortening”. The splenomegaly entry in experiment [1] (mouse, in vivo) is given as “did not prevent splenomegaly”. Besides, the “maintenance of host spleen cells, CD4+ T cells, and Treg cells” value in experiment [1] (proteins 100 µl of 1 mg/ml IP every other day, day -1 to 15, DEX daily days 0-6, day 18) is “maintained host spleen cells, CD4+ T cells, and Treg cells”. Moreover, the Body weight loss entry in experiment [1] (versus PBS controls) is “not severe and was significantly less than in PBS controls”. For the same substance, the IC50 worked out at 0.32 nM with huIL-27 and 0.14 nM in the experiment with muIL-27.
